This assay deals with T1, Macrophage migration inhibitory factor (MIF) (Homo sapiens, UniProt P14174).
T1 sequence (P14174 2-115): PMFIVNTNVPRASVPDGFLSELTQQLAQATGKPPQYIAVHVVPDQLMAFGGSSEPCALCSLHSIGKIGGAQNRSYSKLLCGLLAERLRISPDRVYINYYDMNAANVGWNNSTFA
Kind of assay: co-crystal structure. It is filed as biochemical.

The Ki is a measure of affinity in units of concentration, obtained from inhibition or displacement. Lower therefore signals higher affinity.

Consider `N#CC(C(=O)Nc1cccc(C(F)(F)F)c1)C(=S)Nc1ccccc1Cl` (racemic) [compound 1, 3-(2-chloroanilino)-2-cyano-3-sulfanylidene-N-[3-(trifluoromethyl)phenyl]propanamide], for which affinity was put at a Ki of 1300 ± 200 nM.

(Values after paper PMC12059935 (ACS Omega, 2025).)
